Data as given in US20240124460A1, “METHODS AND COMPOSITIONS FOR TARGETED PROTEIN DEGRADATION” (Ranok Therapeutics (Hangzhou) Co. Ltd., priority 2020, published 2024).
pEC50, pIC50: −log10 of the molar value.

What was measured:
[1] = system: MV-4-11 human acute myeloid leukemia; assay: MV-4-11 CCK-8 proliferation assay; assay type: cell-based; settings: Homo sapiens, MV4-11; MV-4-11 cells, 72 hr
Outline: (§1)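 3-fold dilution series, 20 μM–1.02 nM; ATCC culture conditions; CCK-8 absorbance read-out; % inhibition = 100 − (D−B)/(S−B)×100, S = DMSO cells, B = medium + DMSO, no cells.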

[2] = system: U-87 MG human glioblastoma; assay: U87 MG CCK-8 proliferation assay; assay type: cell-based; settings: Homo sapiens, U-87 MG, 72 h, U-87 MG cells, read-out: U87MG CCK-8
Outline: as §1

HSP90α protein = biological target: T1, HSP90α protein (Homo sapiens, UniProt P07900); assay: HSP90α-binding FP (BODIPY) assay; settings: FP competition with BODIPY-labeled RNK04010
T1 construct: purchased BPS Bioscience #50298
Method: Binding of test compounds to HSP90α protein was measured by fluorescent polarization (FP) using the HSP90α (N-terminal) Assay Kit (BPS Bioscience, #50298), following the manufacturer's instructions, except as noted. Fluorescently labeled HSP90-binding compounds, either the provided FITC-geldanamycin (5 nM final concentration) or RNK04010, a triazolone-based HSP90 binding small molecule labeled with BODIPY through a piperazine-phenyl linker (5 nM final concentration) were employed. A 2.5-fold serial dilution of each test compound ranging from 20 μM to 5.2 nM was assayed for binding to HSP90α. After the final step of adding HSP90α protein to each assay well, plates were mixed by brief shaking, incubated at 25° C. for 120 min for FITC-geldanamycin or 300 min for RNK04010, and fluorescence was measured using a PerkinElmer EnVision Plate Reader.

SMILES: CCOc1cc(N2CCC(C(=O)N3CCC(CN4CCN(Cc5ccc(-n6c(O)nnc6-c6cc(CC)c(O)cc6O)cc5F)CC4)CC3)CC2)ccc1Nc1ncc2c(n1)N(C)c1ccccc1C(=O)N2C [Compound 019, 2-((2-ethoxy-4-(4-(4-((4-(4-(3-(5-ethyl-2,4-dihydroxyphenyl)-5-hydroxy-4H-1,2,4-triazol-4-yl)-2-fluorobenzyl)piperazin-1-yl)methyl)piperidine-1-carbonyl)piperidin-1-yl)phenyl)amino)-5,11-dimethyl-5,11-dihydro-6H-benzo[e]pyrimido[5,4-b][1,4]diazepin-6-one]
- pEC50 [1]: > 7.00
- pEC50 [2]: 6.00 to 7.00
- pIC50 (HSP90α protein): 6.00 to 7.00

SMILES: CCCc1cc(-c2nnc(O)n2-c2ccc(CN3CCN(CC4CCN(C(=O)C5CCN(c6ccc(Nc7ncc8c(n7)N(C)c7ccccc7C(=O)N8C)c(OCC)c6)CC5)CC4)CC3)cc2)c(O)cc1O [Compound 020, 2-((4-(4-(4-((4-(4-(3-(2,4-dihydroxy-5-propylphenyl)-5-hydroxy-4H-1,2,4-triazol-4-yl)benzyl)piperazin-1-yl)methyl)piperidine-1-carbonyl)piperidin-1-yl)-2-ethoxyphenyl)amino)-5,11-dimethyl-5,11-dihydro-6H-benzo[e]pyrimido[5,4-b][1,4]diazepin-6-one]
- pEC50 [1]: 6.00 to 7.00
- pEC50 [2]: 6.00 to 7.00
- pIC50 (HSP90α protein): 6.00 to 7.00

SMILES: CCOc1cc(N2CCC(C(=O)N3CCN(c4ccc(-n5c(O)nnc5-c5cc(C(C)C)c(O)cc5O)cc4)CC3)CC2)ccc1Nc1ncc2c(n1)N(C)c1ccccc1C(=O)N2C [Compound 023, 2-((4-(4-(4-(4-(3-(2,4-dihydroxy-5-isopropylphenyl)-5-hydroxy-4H-1,2,4-triazol-4-yl)phenyl)piperazine-1-carbonyl)piperidin-1-yl)-2-ethoxyphenyl)amino)-5,11-dimethyl-5,11-dihydro-6H-benzo[e]pyrimido[5,4-b][1,4]diazepin-6-one]
- pEC50 [1]: > 7.00
- pEC50 [2]: 6.00 to 7.00
- pIC50 (HSP90α protein): 6.00 to 7.00

SMILES: CCOc1cc(N2CCC(C(=O)N3CCC(CN4CCN(Cc5ccc(-n6c(C(N)=O)nnc6-c6cc(CC)c(O)cc6O)cc5)CC4)CC3)CC2)ccc1Nc1ncc2c(n1)N(C)c1ccccc1C(=O)N2C [Compound 034, 4-(4-((4-((1-(1-(4-((5,11-dimethyl-6-oxo-6,11-dihydro-5H-benzo[e]pyrimido[5,4-b][1,4]diazepin-2-yl)amino)-3-ethoxyphenyl)piperidine-4-carbonyl)piperidin-4-yl)methyl)piperazin-1-yl)methyl)phenyl)-5-(5-ethyl-2,4-dihydroxyphenyl)-4H-1,2,4-triazole-3-carboxamide]
- pEC50 [1]: > 7.00
- pEC50 [2]: 6.00 to 7.00
- pIC50 (HSP90α protein): 6.00 to 7.00

SMILES: CCOc1cc(N2CCC(C(=O)N3CCC(CN4CCN(Cc5ccc(-n6c(C(=O)NC(C)C(F)(F)F)nnc6-c6cc(CC)c(O)cc6O)cc5)CC4)CC3)CC2)ccc1Nc1ncc2c(n1)N(S(C)(=O)=O)c1ccccc1C(=O)N2C (stereo not drawn) [Compound 107, 4-(4-((4-((1-(1-(3-ethoxy-4-((5-methyl-11-(methylsulfonyl)-6-oxo-6,11-dihydro-5H-benzo[e]pyrimido[5,4-b][1,4]diazepin-2-yl)amino)phenyl)piperidine-4-carbonyl)piperidin-4-yl)methyl)piperazin-1-yl)methyl)phenyl)-5-(5-ethyl-2,4-dihydroxyphenyl)-N-(1,1,1-trifluoropropan-2-yl)-4H-1,2,4-triazole-3-carboxamide]
- pEC50 [1]: > 7.00
- pIC50 (HSP90α protein): 6.00 to 7.00

SMILES: CCOc1cc(N2CCC(C(=O)N3CCC(CN4CCC(COc5ccc(Nc6cc(-n7nc(C(F)(F)F)c8c7CC(C)(C)CC8=O)ccc6C(N)=O)cc5)CC4)CC3)CC2)ccc1Nc1ncc2c(n1)N(S(C)(=O)=O)c1ccccc1C(=O)N2C [Compound 137, 4-(6,6-dimethyl-4-oxo-3-(trifluoromethyl)-4,5,6,7-tetrahydro-1H-indazol-1-yl)-2-((4-((1-((1-(1-(3-ethoxy-4-((5-methyl-11-(methylsulfonyl)-6-oxo-6,11-dihydro-5H-benzo[e]pyrimido[5,4-b][1,4]diazepin-2-yl)amino)phenyl)piperidine-4-carbonyl)piperidin-4-yl)methyl)piperidin-4yl)methoxy)phenyl)amino)benzamide]
- pEC50 [1]: 6.00 to 7.00
- pIC50 (HSP90α protein): < 6.00

SMILES: CCOc1cc(N2CCC(C(=O)N3CCC(CN4CCN(CCOc5ccc(Nc6cc(-n7nc(C(F)(F)F)c8c7CC(C)(C)CC8=O)ccc6C(N)=O)cc5)CC4)CC3)CC2)ccc1Nc1ncc2c(n1)N(S(C)(=O)=O)c1ccccc1C(=O)N2C [Compound 138, 4-(6,6-dimethyl-4-oxo-3-(trifluoromethyl)-4,5,6,7-tetrahydro-1H-indazol-1-yl)-2-((4-(2-(4-((1-(1-(3-ethoxy-4-((5-methyl-11-(methylsulfonyl)-6-oxo-6,11-dihydro-5H-benzo[e]pyrimido[5,4-b][1,4]diazepin-2-yl)amino)phenyl)piperidine-4-carbonyl)piperidin-4-yl)methyl)piperazin-1-yl)ethoxy)phenyl)amino)benzamide]
- pEC50 [1]: 6.00 to 7.00
- pIC50 (HSP90α protein): < 6.00

SMILES: CCOc1cc(N2CCC(C(=O)NCCOCCOCCOc3ccc(Nc4cc(-n5nc(C(F)(F)F)c6c5CC(C)(C)CC6=O)ccc4C(N)=O)cc3)CC2)ccc1Nc1ncc2c(n1)N(S(C)(=O)=O)c1ccccc1C(=O)N2C [Compound 139, N-(2-(2-(2-(4-((2-carbamoyl-5-(6,6-dimethyl-4-oxo-3-(trifluoromethyl)-4,5,6,7-tetrahydro-1H-indazol-1-yl)phenyl)amino)phenoxy)ethoxy)ethoxy)ethyl)-1-(3-ethoxy-4-((5-methyl-11-(methylsulfonyl)-6-oxo-6,11-dihydro-5H-benzo[e]pyrimido[5,4-b][1,4]diazepin-2-yl)amino)phenyl)piperidine-4-carboxamide]
- pEC50 [1]: 6.00 to 7.00
- pIC50 (HSP90α protein): < 6.00

SMILES: CCOc1cc(N2CCC(C(=O)NCCOCCOCCOCCOc3ccc(Nc4cc(-n5nc(C(F)(F)F)c6c5CC(C)(C)CC6=O)ccc4C(N)=O)cc3)CC2)ccc1Nc1ncc2c(n1)N(S(C)(=O)=O)c1ccccc1C(=O)N2C [Compound 140, N-(2-(2-(2-(2-(4-((2-carbamoyl-5-(6,6-dimethyl-4-oxo-3-(trifluoromethyl)-4,5,6,7-tetrahydro-1H-indazol-1-yl)phenyl)amino)phenoxy)ethoxy)ethoxy)ethoxy)ethyl)-1-(3-ethoxy-4-((5-methyl-11-(methylsulfonyl)-6-oxo-6,11-dihydro-5H-benzo[e]pyrimido[5,4-b][1,4]diazepin-2-yl)amino)phenyl)piperidine-4-carboxamide]
- pEC50 [1]: 6.00 to 7.00
- pIC50 (HSP90α protein): < 6.00

SMILES: CCOc1cc(N2CCC(CN3CCN(Cc4ccc(-n5c(O)nnc5-c5cc(C(C)C)c(O)cc5O)cc4)CC3)CC2)ccc1Nc1ncc2c(n1)N(S(C)(=O)=O)c1ccccc1C(=O)N2C [Compound 187, 2-((4-(4-((4-(4-(3-(2,4-dihydroxy-5-isopropylphenyl)-5-hydroxy-4H-1,2,4-triazol-4-yl)benzyl)piperazin-1-yl)methyl)piperidin-1-yl)-2-ethoxyphenyl)amino)-5-methyl-11-(methylsulfonyl)-5,11-dihydro-6H-benzo[e]pyrimido[5,4-b][1,4]diazepin-6-one]
- pEC50 [1]: > 7.00
- pEC50 [2]: > 7.00

SMILES: CCOc1cc(N2CCN(Cc3ccc(-n4c(O)nnc4-c4cc(C(C)C)c(O)cc4O)cc3)CC2)ccc1Nc1ncc2c(n1)N(C1CCCC1)c1ccccc1C(=O)N2C [Compound 188, 11-cyclopentyl-2-((4-(4-(4-(3-(2,4-dihydroxy-5-isopropylphenyl)-5-hydroxy-4H-1,2,4-triazol-4-yl)benzyl)piperazin-1-yl)-2-ethoxyphenyl)amino)-5-methyl-5,11-dihydro-6H-benzo[e]pyrimido[5,4-b][1,4]diazepin-6-one]
- pEC50 [1]: 6.00 to 7.00
- pEC50 [2]: < 6.00

SMILES: CCNC(=O)c1nnc(-c2cc(C(C)C)c(O)cc2O)n1-c1ccc(CN2CCN(c3ccc(Nc4ncc5c(n4)N(C4CCCC4)c4ccccc4C(=O)N5C)c(OCC)c3)CC2)cc1 [Compound 190, 4-(4-((4-(4-((11-cyclopentyl-5-methyl-6-oxo-6,11-dihydro-5H-benzo[e]pyrimido[5,4-b][1,4]diazepin-2-yl)amino)-3-ethoxyphenyl)piperazin-1-yl)methyl)phenyl)-5-(2,4-dihydroxy-5-isopropylphenyl)-N-ethyl-4H-1,2,4-triazole-3-carboxamide]
- pEC50 [1]: 6.00 to 7.00
- pEC50 [2]: 6.00 to 7.00

SMILES: CCOc1cc(CN2CCC(CN3CCN(Cc4ccc(-n5c(C(=O)NCC(F)(F)F)nnc5-c5cc(C(C)C)c(O)cc5O)cc4)CC3)CC2)ccc1Nc1ncc2c(n1)N(S(C)(=O)=O)c1ccccc1C(=O)N2C [Compound 191, 5-(2,4-dihydroxy-5-isopropylphenyl)-4-(4-((4-((1-(3-ethoxy-4-((5-methyl-11-(methylsulfonyl)-6-oxo-6,11-dihydro-5H-benzo[e]pyrimido[5,4-b][1,4]diazepin-2-yl)amino)benzyl)piperidin-4-yl)methyl)piperazin-1-yl)methyl)phenyl)-N-(2,2,2-trifluoroethyl)-4H-1,2,4-triazole-3-carboxamide]
- pEC50 [1]: > 7.00
- pEC50 [2]: > 7.00
